Assay results as given in PubChem BioAssay AID2060485 (Molecular Pharmacology Branch, DTP, NCI, 2025).

Tested on: A375 multi-cell spheroids with HUVEC/MSC, viability
Experiment: Anticancer human tumor A375 cell line growth inhibition [GQUAD];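 further: spheroids exposed to compounds for seven days before readout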
Conditions: for IC50: curve of first compound; for viability, T/C: stronger effect = lower value
Outline: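 Multi-cell-type spheroids of tumor cells with HUVEC and mesenchymal stem cells, treated with drug combinations. Concentrations descend in half-log steps from near clinical Cmax, or from 10 microM where Cmax is unknown; viability read-out.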

[1] = second compound 0.0316 µM, first compound 0.0316 µM
[2] = second compound 0.0316 µM, first compound 0.1 µM
[3] = second compound 0.0316 µM, first compound 0.316 µM
[4] = second compound 0.0316 µM, first compound 1 µM
[5] = second compound 0.0316 µM, first compound 3.16 µM
[6] = second compound 0.0316 µM, first compound 10 µM
[7] = second compound 0.1 µM, first compound 0.0316 µM
[8] = second compound 0.1 µM, first compound 0.1 µM
[9] = second compound 0.1 µM, first compound 0.316 µM
[10] = second compound 0.1 µM, first compound 1 µM
[11] = second compound 0.1 µM, first compound 3.16 µM
[12] = second compound 0.1 µM, first compound 10 µM
[13] = second compound 0.316 µM, first compound 0.0316 µM
[14] = second compound 0.316 µM, first compound 0.1 µM
[15] = second compound 0.316 µM, first compound 0.316 µM
[16] = second compound 0.316 µM, first compound 1 µM
[17] = second compound 0.316 µM, first compound 3.16 µM
[18] = second compound 0.316 µM, first compound 10 µM
[19] = second compound 1 µM, first compound 0.0316 µM
[20] = second compound 1 µM, first compound 0.1 µM
[21] = second compound 1 µM, first compound 0.316 µM
[22] = second compound 1 µM, first compound 1 µM
[23] = second compound 1 µM, first compound 3.16 µM
[24] = second compound 1 µM, first compound 10 µM
[25] = second compound 3.16 µM, first compound 0.0316 µM
[26] = second compound 3.16 µM, first compound 0.1 µM
[27] = second compound 3.16 µM, first compound 0.316 µM
[28] = second compound 3.16 µM, first compound 1 µM
[29] = second compound 3.16 µM, first compound 3.16 µM
[30] = second compound 3.16 µM, first compound 10 µM
[31] = second compound 10 µM, first compound 0.0316 µM
[32] = second compound 10 µM, first compound 0.1 µM
[33] = second compound 10 µM, first compound 0.316 µM
[34] = second compound 10 µM, first compound 1 µM
[35] = second compound 10 µM, first compound 3.16 µM
[36] = second compound 10 µM, first compound 10 µM
[37] = second compound 0.0316 µM, first compound 0.000999 µM
[38] = second compound 0.0316 µM, first compound 0.00316 µM
[39] = second compound 0.0316 µM, first compound 0.00999 µM
[40] = second compound 0.0316 µM, first compound 0.0999 µM
[41] = second compound 0.1 µM, first compound 0.000999 µM
[42] = second compound 0.1 µM, first compound 0.00316 µM
[43] = second compound 0.1 µM, first compound 0.00999 µM
[44] = second compound 0.1 µM, first compound 0.0999 µM
[45] = second compound 0.316 µM, first compound 0.000999 µM
[46] = second compound 0.316 µM, first compound 0.00316 µM
[47] = second compound 0.316 µM, first compound 0.00999 µM
[48] = second compound 0.316 µM, first compound 0.0999 µM
[49] = second compound 1 µM, first compound 0.000999 µM
[50] = second compound 1 µM, first compound 0.00316 µM
[51] = second compound 1 µM, first compound 0.00999 µM
[52] = second compound 1 µM, first compound 0.0999 µM
[53] = second compound 3.16 µM, first compound 0.000999 µM
[54] = second compound 3.16 µM, first compound 0.00316 µM
[55] = second compound 3.16 µM, first compound 0.00999 µM
[56] = second compound 3.16 µM, first compound 0.0999 µM
[57] = second compound 10 µM, first compound 0.000999 µM
[58] = second compound 10 µM, first compound 0.00316 µM
[59] = second compound 10 µM, first compound 0.00999 µM
[60] = second compound 10 µM, first compound 0.0999 µM

For `C=CC(=O)N1CCN(c2nc(=O)n(-c3c(C)ccnc3C(C)C)c3nc(-c4c(O)cccc4F)c(F)cc23)C(C)C1` (stereo not drawn) + Cc1[nH]c2ccc(F)cc2c1-c1nc2c3cccnc3c3ncccc3c2[nH]1, the IC50 (second compound 0.0316 µM) was greater than 10 µM, the IC50 (second compound 0.1 µM) was greater than 10 µM and the IC50 (second compound 0.316 µM) was greater than 10 µM. The IC50 (second compound 1 µM) was greater than 10 µM, the IC50 (second compound 3.16 µM) was greater than 10 µM and the IC50 (second compound 10 µM) was greater than 10 µM. It also gave a viability, T/C [1] of 101%, a viability, T/C [2] of 102% and a viability, T/C [3] of 96.6%. For the same compound, the viability, T/C [4] was 94.5%, the viability, T/C [5] was 111% and the viability, T/C [6] was 135%. The viability, T/C [7] was 116%, the viability, T/C [8] was 97.8% and the viability, T/C [9] was 103%. For the same compound, the viability, T/C [10] was 93.3%, the viability, T/C [11] was 140% and the viability, T/C [12] was 149%. It also gave a viability, T/C [13] of 99%, a viability, T/C [14] of 102% and a viability, T/C [15] of 105%. For the same compound, the viability, T/C [16] was 113%, the viability, T/C [17] was 152% and the viability, T/C [18] was 150%. For the same compound, the viability, T/C [19] was 99.1%, the viability, T/C [20] was 103% and the viability, T/C [21] was 110%. It also gave a viability, T/C [22] of 120%, a viability, T/C [23] of 161% and a viability, T/C [24] of 141%. For the same compound, the viability, T/C [25] was 94.2%, the viability, T/C [26] was 95.5% and the viability, T/C [27] was 104%. It also gave a viability, T/C [28] of 93.6%, a viability, T/C [29] of 104% and a viability, T/C [30] of 52.9%. It also gave a viability, T/C [31] of 108%, a viability, T/C [32] of 99% and a viability, T/C [33] of 116%. It also gave a viability, T/C [34] of 96.3%, a viability, T/C [35] of 121% and a viability, T/C [36] of 79.8%.
Compound `CCc1c2c(nc3ccc(O)cc13)-c1cc3c(c(=O)n1C2)COC(=O)[C@]3(O)CC` + Cc1[nH]c2ccc(F)cc2c1-c1nc2c3cccnc3c3ncccc3c2[nH]1 has an IC50 (second compound 0.0316 µM) of less than 0.000999 µM, an IC50 (second compound 0.1 µM) of less than 0.000999 µM and an IC50 (second compound 0.316 µM) of less than 0.000999 µM. The IC50 (second compound 1 µM) was less than 0.000999 µM, the IC50 (second compound 3.16 µM) was less than 0.000999 µM and the IC50 (second compound 10 µM) was less than 0.000999 µM. It also gave a viability, T/C [37] of 46%, a viability, T/C [38] of 20% and a viability, T/C [39] of 16.8%. For the same compound, the viability, T/C [1] was 19.7%, the viability, T/C [40] was 4.81% and the viability, T/C [3] was 0.52%. It also gave a viability, T/C [41] of 50.3%, a viability, T/C [42] of 20.4% and a viability, T/C [43] of 14.7%. For the same compound, the viability, T/C [7] was 16.9%, the viability, T/C [44] was 5.44% and the viability, T/C [9] was 0.54%. It also gave a viability, T/C [45] of 47.8%, a viability, T/C [46] of 18.3% and a viability, T/C [47] of 15.2%. It also gave a viability, T/C [13] of 19.5%, a viability, T/C [48] of 5.75% and a viability, T/C [15] of 0.54%. The viability, T/C [49] was 41.1%, the viability, T/C [50] was 20.4% and the viability, T/C [51] was 18.4%. It also gave a viability, T/C [19] of 16.4%, a viability, T/C [52] of 5.26% and a viability, T/C [21] of 0.53%. For the same compound, the viability, T/C [53] was 32%, the viability, T/C [54] was 20.9% and the viability, T/C [55] was 17.6%. The viability, T/C [25] was 11%, the viability, T/C [56] was 0.47% and the viability, T/C [27] was 0.17%. The viability, T/C [57] was 39.4%, the viability, T/C [58] was 17.6% and the viability, T/C [59] was 17.1%. The viability, T/C [31] was 14.1%, the viability, T/C [60] was 1.7% and the viability, T/C [33] was 0.25%.
With `Cc1cccc(N(C)C(=O)C2C(O)CCN2c2nc(C)cc(C(F)(F)F)c2C#N)c1` (stereo not drawn) + Cc1[nH]c2ccc(F)cc2c1-c1nc2c3cccnc3c3ncccc3c2[nH]1 the IC50 (second compound 0.0316 µM) was greater than 10 µM, the IC50 (second compound 0.1 µM) was greater than 10 µM and the IC50 (second compound 0.316 µM) was greater than 10 µM. For the same compound, the IC50 (second compound 1 µM) was greater than 10 µM, the IC50 (second compound 3.16 µM) was greater than 10 µM and the IC50 (second compound 10 µM) was greater than 10 µM. The viability, T/C [1] was 102%, the viability, T/C [2] was 102% and the viability, T/C [3] was 94.8%. It also gave a viability, T/C [4] of 98.6%, a viability, T/C [5] of 95.5% and a viability, T/C [6] of 95.2%. It also gave a viability, T/C [7] of 106%, a viability, T/C [8] of 94.5% and a viability, T/C [9] of 105%. For the same compound, the viability, T/C [10] was 108%, the viability, T/C [11] was 104% and the viability, T/C [12] was 103%. The viability, T/C [13] was 98.1%, the viability, T/C [14] was 100% and the viability, T/C [15] was 93.5%. The viability, T/C [16] was 111%, the viability, T/C [17] was 111% and the viability, T/C [18] was 107%. The viability, T/C [19] was 95.7%, the viability, T/C [20] was 101% and the viability, T/C [21] was 106%. The viability, T/C [22] was 109%, the viability, T/C [23] was 103% and the viability, T/C [24] was 105%. It also gave a viability, T/C [25] of 80%, a viability, T/C [26] of 90.2% and a viability, T/C [27] of 94.7%. For the same compound, the viability, T/C [28] was 84.2%, the viability, T/C [29] was 89.5% and the viability, T/C [30] was 79.4%. The viability, T/C [31] was 106%, the viability, T/C [32] was 100% and the viability, T/C [33] was 112%. The viability, T/C [34] was 106%, the viability, T/C [35] was 97.6% and the viability, T/C [36] was 91.7%.
`Cn1ncnc1[C@H]1c2n[nH]c(=O)c3cc(F)cc(c23)N[C@@H]1c1ccc(F)cc1` + Cc1[nH]c2ccc(F)cc2c1-c1nc2c3cccnc3c3ncccc3c2[nH]1 was tested, and the IC50 (second compound 0.0316 µM) was greater than 0.316 µM, the IC50 (second compound 0.1 µM) was greater than 0.316 µM and the IC50 (second compound 0.316 µM) was greater than 0.316 µM. The IC50 (second compound 1 µM) was greater than 0.316 µM, the IC50 (second compound 3.16 µM) was greater than 0.316 µM and the IC50 (second compound 10 µM) was greater than 0.316 µM. The viability, T/C [37] was 106%, the viability, T/C [38] was 98.1% and the viability, T/C [39] was 108%. For the same compound, the viability, T/C [1] was 106%, the viability, T/C [40] was 104% and the viability, T/C [3] was 97.4%. It also gave a viability, T/C [41] of 96.3%, a viability, T/C [42] of 97.5% and a viability, T/C [43] of 102%. The viability, T/C [7] was 103%, the viability, T/C [44] was 125% and the viability, T/C [9] was 114%. It also gave a viability, T/C [45] of 108%, a viability, T/C [46] of 105% and a viability, T/C [47] of 106%. The viability, T/C [13] was 112%, the viability, T/C [48] was 131% and the viability, T/C [15] was 121%. For the same compound, the viability, T/C [49] was 100%, the viability, T/C [50] was 98% and the viability, T/C [51] was 115%. For the same compound, the viability, T/C [19] was 137%, the viability, T/C [52] was 138% and the viability, T/C [21] was 116%. It also gave a viability, T/C [53] of 83.7%, a viability, T/C [54] of 93.6% and a viability, T/C [55] of 92.3%. For the same compound, the viability, T/C [25] was 78.3%, the viability, T/C [56] was 80.7% and the viability, T/C [27] was 72%. For the same compound, the viability, T/C [57] was 106%, the viability, T/C [58] was 95.7% and the viability, T/C [59] was 112%. For the same compound, the viability, T/C [31] was 101%, the viability, T/C [60] was 96.8% and the viability, T/C [33] was 90.9%.
